Where “and” joins values, the source holds several entries; their conditions need not be identical. Equal entries are not always repeated.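 Compound exposure: 48 hours, 5 concentrations, 96-well plates. GI50: concentration for 50% inhibition of growth. The concentration for full growth arrest is given as TGI.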
Tests used:
Assay in all cases: growth of human tumour cells (NCI), 48 h
786-0 renal = test system: 786-0 renal
CAKI-1 renal = test system: CAKI-1 renal
DU-145 prostate = test system: DU-145 prostate
EKVX NSCLC = test system: EKVX NSCLC
HOP-18 NSCLC = test system: HOP-18 NSCLC
M19-MEL melanoma = test system: M19-MEL melanoma
RPMI-8226 leukemia = test system: RPMI-8226 leukemia
SK-MEL-2 melanoma = test system: SK-MEL-2 melanoma
SK-MEL-28 melanoma = test system: SK-MEL-28 melanoma
SNB-19 CNS = test system: SNB-19 CNS

SMILES	GI50 (786-0 renal) [µM]	TGI (786-0 renal)	GI50 (CAKI-1 renal) [µM]	TGI (CAKI-1 renal)	TGI (DU-145 prostate) [µM]	TGI (EKVX NSCLC)	TGI (HOP-18 NSCLC)	GI50 (M19-MEL melanoma) [µM]	TGI (M19-MEL melanoma)	GI50 (RPMI-8226 leukemia) [µM]	TGI (RPMI-8226 leukemia)	GI50 (SK-MEL-2 melanoma) [µM]	TGI (SK-MEL-2 melanoma)	GI50 (SK-MEL-28 melanoma) [µM]	TGI (SK-MEL-28 melanoma)	GI50 (SNB-19 CNS) [µM]	TGI (SNB-19 CNS)	GI50 (EKVX NSCLC) [µM]	GI50 (HOP-18 NSCLC)	GI50 (DU-145 prostate) [µM]
CC1CCC(NC(=O)N(CCCl)N=O)CC1 (stereo not given)	13.9	32.4 µM and 64.2 µM	18.9	37.5 µM and 53.2 µM	227	119 µM	62.8 µM	53.1	98 µM	12.5	37 µM and 103 µM	20.4	48.1 µM and 91.2 µM	18.8	35.1 µM and 93.1 µM	55	110 µM			
Cc1cccc(C)c1NC(=O)C(C#N)C1=C(Cl)C(=O)c2ccccc2C1=O (stereo not given)		45.7 µM		38.1 µM	28.1	38.5 µM	25.3 µM		16.6 µM		53.6 µM		29.2 µM		38.1 µM		32.4 µM			
COc1cc(C[C@H]2c3cc(OC)c(OC)cc3CCN2C)c(Oc2cc3c(cc2OC)-c2c(OC)c(OC)cc4c2[C@H](C3)N(C)CC4)cc1OC	8.97	14.1 µM and 21.9 µM	16.1	23.9 µM and 42.6 µM	39.6	34.6 µM and 32.7 µM	40.9 µM and 29.9 µM	11.9	16.8 µM and 24.6 µM	3.22	25.5 µM and 15.4 µM	14.9	18.5 µM and 28.8 µM	2.94	9.03 µM and 8.73 µM	20.3	41.8 µM and 54 µM	17.6	20.1 µM and 15.8 µM	
OC(c1ccccc1)(c1ccccc1)c1ccncc1		> 100 µM		> 100 µM		> 100 µM	> 100 µM		> 100 µM		> 100 µM		> 100 µM		> 100 µM		> 100 µM			
CCc1cc(C(=O)OC)cn1C(=N)c1ccc(Cl)cc1		> 100 µM		> 100 µM		> 100 µM	> 100 µM		> 100 µM		> 100 µM		> 100 µM		> 100 µM		> 100 µM			
COc1cc(OC(=O)c2ccccc2)cc2c1C(=O)C=CC2=O		18.9 µM		37 µM	34.4	30.2 µM	41.5 µM		25.9 µM		29.7 µM		40.4 µM		34.5 µM		56.4 µM			
Cn1cc(C(=O)NCCC(=N)N)cc1NC(=O)C1=[N+](C)C=C(NC(=O)c2cccc(C(=O)NC3=CC(C(=O)Nc4cc(C(=O)NCCC(=N)N)cn4C)=[N+](C)C3)c2)C1		> 100 µM		> 100 µM		> 100 µM	> 100 µM		> 100 µM		> 100 µM		> 100 µM		> 100 µM		> 100 µM			
COc1c(C)c2c(c(O)c1C/C=C(\C)CCC(=O)O)C(=O)OC2	0.326	> 100 µM	0.134	14.7 µM	> 100	> 100 µM	> 100 µM		> 100 µM	0.518	> 100 µM	2	> 100 µM	0.38	> 100 µM	0.286	> 100 µM	0.892		0.57
COc1cc(/C=C2/C(=O)N(C(=O)OCC(C)C)C(Cc3cc(OC)c(OC)c(C)c3OC)C(=O)N2Cc2ccccc2)c(OC)c(C)c1OC (stereo not given)		> 100 µM		> 100 µM		> 100 µM	> 100 µM		> 100 µM		> 100 µM		> 100 µM		> 100 µM		> 100 µM			

Source: PubChem BioAssay (NCI)
